The structures appear in SMILES notation.

The first test has as its system diamondback moth (Plutella xylostella). In words: Insecticidal effect on diamondback moth (Test Example 1). It counts as in vivo. The conditions noted are these: diamondback moth; judged by the criterion of Test Example 1. As to the method:
Insecticidal effect on diamondback moth (Plutella xylostella) Adult diamondback moths were released and allowed to oviposit on a Chinese cabbage seedling. […] After air-drying, it was allowed to stand in a room thermostated at 25° C. Six days after the immersion, the hatched insects were counted. The mortality was calculated according to the following equation and the insecticidal effect was judged according to the criterion shown below. The test was carried out with triplicate groups of 10 insects. [table]
As for `Cc1cc(C(F)(F)C(F)(F)F)ccc1NC(=O)c1c(Cl)cccc1C(=O)N[C@@H](CO)c1ccccc1` [compound 1443], the “Insecticidal effect (Test Example 1), judged from mortality” value (“Insecticidal effect … from mortality” for short) is on record as “A (100)”.
With `CC(C)c1cc(C(F)(C(F)(F)F)C(F)(F)F)ccc1NC(=O)c1cccc(I)c1C(=O)NC(C)(C)C` [compound 1692], the “Insecticidal effect … from mortality” value is “A (100)”.
Turning to `Cc1cc(-c2ccc(OC(F)(F)F)cc2)ccc1NC(=O)c1cccc(I)c1C(=O)NC(C)C` [compound 1521], the “Insecticidal effect … from mortality” value is on record as “A (100)”.
With `Cc1cc(OC(F)F)ccc1NC(=O)c1c(I)cccc1C(=O)NC1CC1` [compound 1453], the “Insecticidal effect … from mortality” value is given as “A (100)”.
The same measure, in the same setting: to `CC(C)NC(=O)c1c(I)cccc1C(=O)Nc1cccc(-c2csc(C(F)(F)F)n2)c1` [compound 1658] belongs “A (100)”; to `Cc1cc(C(F)(F)C(F)(F)F)ccc1NC(=O)c1c(Cl)cccc1C(=O)NCc1ccc(OC(F)(F)F)cc1` [compound 1577], “A (100)”; to `CCCNC(=O)c1cccc(F)c1C(=O)Nc1ccc(C(F)(F)C(F)(F)F)cc1F` [compound 1513], “A (100)”.
For the compound `Cc1cc2c(cc1NC(=O)c1cccc(Cl)c1C(=O)NC(C)C)OC(F)(F)O2` [compound 1661], the “Insecticidal effect … from mortality” value was “A (100)”.

Staying with this test, now noted: diamondback moth; judged by the mortality criterion of Test Example 1.
Regarding `Cc1cc(Cl)ccc1NC(=O)c1cc(Cl)ccc1C(=O)NC(C)C` [compound 190], the “Insecticidal effect, Test Example 1” value is on record as “A (100)”.
As to `Cc1c(Cl)cccc1NC(=O)c1cc(Cl)ccc1C(=O)NC(C)C` [compound 189], the “Insecticidal effect, Test Example 1” value was “A (100)”.
On to `Cc1cc(SC(C)C)ccc1NC(=O)c1ccccc1C(=O)NC(C)C` [compound 68], for which the “Insecticidal effect, Test Example 1” value is reported as “A (100)”.
As for `Cc1ccc(F)cc1NC(=O)c1ccc(Cl)cc1C(=O)NC(C)C` [compound 179], the “Insecticidal effect, Test Example 1” value is “A (100)”.
Turning to `CC(C)NC(=O)c1ccc(Cl)cc1C(=O)Nc1ccc(F)c(F)c1F` [compound 194], the “Insecticidal effect, Test Example 1” value is recorded as “A (100)”.
As for `CC(C)NC(=O)c1ccc(Cl)cc1C(=O)Nc1ccc(OC(F)(F)F)cc1` [compound 185], the “Insecticidal effect, Test Example 1” value is given as “A (100)”.
On the same count and under the same terms, to `Cc1cc(SC(C)C)ccc1NC(=O)c1cccc(I)c1C(=O)NC(C)C` [compound 402] belongs “A (100)”.
For `Cc1cc(Oc2cccc(C(F)(F)F)c2)ccc1NC(=O)c1cccc(I)c1C(=O)NC(C)C` [compound 398], the “Insecticidal effect, Test Example 1” value was “A (100)”.
As for `CCCCc1ccc(NC(=O)c2c(Cl)cccc2C(=O)NC(C)C)cc1` [compound 195], the “Insecticidal effect, Test Example 1” value is “A (100)”.
`Cc1cc(C)c(NC(=O)c2cccc(Br)c2C(=O)NC(C)C)c(C)c1` [compound 265]: the “Insecticidal effect, Test Example 1” value is “A (100)”.
For the compound `CC(C)NC(=O)c1ccccc1C(=O)Nc1ccc(SC(F)F)cc1` [compound 32], the “Insecticidal effect, Test Example 1” value was “A (100)”.
With `CC(C)NC(=O)c1c(Cl)cccc1C(=O)Nc1ccc(OC(F)F)cc1` [compound 92], the “Insecticidal effect, Test Example 1” value is given as “A (100)”.

The same test, now with this note: diamondback moth; mortality judged by criterion of Test Example 1.
On to `Cc1cc(OC(F)(F)F)ccc1NC(=O)c1ccc(F)c(Cl)c1C(=O)NC(C)(C)C` [compound 1260], for which the “Insecticidal effect, Test Example 1” value is given as “A (100)”.
Turning to `CCCONC(=O)c1cccc(Cl)c1C(=O)Nc1ccc(C(F)(F)C(F)(F)F)cc1C` [compound 1328], the “Insecticidal effect, Test Example 1” value is “A (100)”.
In the case of `Cc1cc(C(F)(F)C(F)(F)F)ccc1NC(=O)c1c(I)cccc1C(=O)NC(C)C(C)C` (stereo not shown) [compound 1034], the “Insecticidal effect, Test Example 1” value is on record as “A (100)”.
The same measure, in the same setting: to `Cc1ccccc1CNC(=O)c1c(I)cccc1C(=O)Nc1ccc(OC(F)F)cc1C` [compound 1434] belongs “A (100)”.
In the case of `Cc1cc(OC(F)(F)F)ccc1NC(=O)c1cc(F)c(F)cc1C(=O)NC(C)(C)C` [compound 1288], the “Insecticidal effect, Test Example 1” value is “A (100)”.
On to `Cc1ccc(CNC(=O)c2c(Cl)cccc2C(=O)Nc2ccc(C(F)(F)C(F)(F)F)cc2C)cc1` [compound 1341], for which the “Insecticidal effect, Test Example 1” value is “A (100)”.
Turning to `Cc1cc(C(F)(F)C(F)(F)F)ccc1NC(=O)c1cccc(Cl)c1C(=O)NC(CO)c1ccc(-c2ccccc2)cc1` (stereo not shown) [compound 1412], the “Insecticidal effect, Test Example 1” value is “A (100)”.
On the same count and under the same terms, to `Cc1cc(C(F)(F)C(F)(F)F)ccc1NC(=O)c1cccc(I)c1C(=O)N1CCCCC1` [compound 1082] belongs “A (100)”; to `Cc1cc(C(F)(F)C(F)(F)F)ccc1NC(=O)c1c(Cl)cccc1C(=O)NCCCc1ccccc1` [compound 1332], “A (100)”.
With `Cc1cc(C(F)(F)C(F)(F)F)ccc1NC(=O)c1c(Cl)cccc1C(=O)NCCOc1ccc(Cl)cc1` [compound 1373], the “Insecticidal effect, Test Example 1” value is on record as “A (100)”.
As to `Cc1cc(C(F)(F)C(F)(F)F)ccc1NC(=O)c1cccc(Cl)c1C(=O)NCCNc1ccccc1` [compound 1376], the “Insecticidal effect, Test Example 1” value is “A (100)”.
Consider `CCN(CC)C(=O)c1cccc([N+](=O)[O-])c1C(=O)Nc1ccc(OC(F)(F)C(F)F)cc1C` [compound 1137], for which the “Insecticidal effect, Test Example 1” value was “A (100)”.
The same measure, in the same setting: to `Cc1cc(C(F)(F)C(F)(F)F)ccc1NC(=O)c1c(I)cccc1C(=O)NC1CCCC1` [compound 992] belongs “A (100)”; to `CCCNC(=O)c1cccc(I)c1C(=O)Nc1ccc(OC(F)(F)C(F)F)cc1C` [compound 1059], “A (100)”.
Regarding `Cc1cc(OC(F)F)ccc1NC(=O)c1cccc(Cl)c1C(=O)NCc1ccccc1` [compound 1421], the “Insecticidal effect, Test Example 1” value is listed as “A (100)”.
`COc1ccc(CNC(=O)c2c(Cl)cccc2C(=O)Nc2ccc(C(F)(F)C(F)(F)F)cc2C)cc1` [compound 1347]: the “Insecticidal effect, Test Example 1” value is on record as “A (100)”.
On to `Cc1cc(C(F)(F)C(F)(F)F)ccc1NC(=O)c1c(Cl)cccc1C(=O)NC(C)c1ccccc1Cl` (stereo not shown) [compound 1363], for which the “Insecticidal effect, Test Example 1” value is reported as “A (100)”.

The test is the same for the next values; noted with them: mortality judged according to the criterion shown in Test Example 1.
As to `Cc1cccc(C)c1NC(=O)c1cccc([N+](=O)[O-])c1C(=O)NC(C)C` [compound 650], the “Insecticidal effect on diamondback moth (Test Example 1), judged grade” value (shortened to “Insecticidal effect on diamondback moth”) was “A (100)”.
On to `CC(C)NC(=O)c1c(C(=O)Nc2cc(F)ccc2F)cccc1[N+](=O)[O-]` [compound 640], for which the “Insecticidal effect on diamondback moth” value is recorded as “A (100)”.
In the case of `CC(C)NC(=O)c1cccc(Cl)c1C(=O)Nc1ccc(Oc2ccc(C(F)(F)F)cc2Cl)cc1F` [compound 904], the “Insecticidal effect on diamondback moth” value is on record as “A (100)”.
For `CC(C)NC(=O)c1c(C(=O)Nc2cccc(F)c2F)cccc1[N+](=O)[O-]` [compound 638], the “Insecticidal effect on diamondback moth” value was “B (99-90)”.
On to `CCOC(CNC(=O)c1c(C(=O)Nc2ccc(OC(F)F)cc2C)cccc1[N+](=O)[O-])OCC` [compound 875], for which the “Insecticidal effect on diamondback moth” value is reported as “A (100)”.
Still for that read-out and setting: to `Cc1cccc(NC(=O)c2cccc([N+](=O)[O-])c2C(=O)NC(C)C)c1` [compound 600] belongs “A (100)”; to `Cc1cccc(C(=O)Nc2ccc(OC(F)(F)F)cc2)c1C(=O)NC(C)C` [compound 749], “A (100)”; to `CC(C)NC(=O)c1cccc(-c2ccccc2)c1C(=O)Nc1ccc(OC(F)(F)F)cc1` [compound 808], “A (100)”.
As for `CC(C)NC(=O)c1c(C(=O)Nc2cccc(Cl)c2)cccc1[N+](=O)[O-]` [compound 587], the “Insecticidal effect on diamondback moth” value was “A (100)”.
On the same count and under the same terms, to `CC(C)NC(=O)c1c(C(=O)Nc2cccc(F)c2)cccc1[N+](=O)[O-]` [compound 593] belongs “A (100)”.
Consider `CC(C)NC(=O)c1c(F)cccc1C(=O)Nc1cc(Cl)c(OC(F)F)c(Cl)c1` [compound 506], for which the “Insecticidal effect on diamondback moth” value is listed as “A (100)”.
For the compound `Cc1cc(Oc2ncc(C(F)(F)F)cc2Cl)ccc1NC(=O)c1c(I)cccc1C(=O)NC(C)C` [compound 461], the “Insecticidal effect on diamondback moth” value was “A (100)”.
With `CC(C)NC(=O)c1c(Cl)cccc1C(=O)Nc1ccc(C=C(Br)Br)cc1` [compound 913], the “Insecticidal effect on diamondback moth” value is reported as “A (100)”.
With `CCC(C)NC(=O)c1cccc(Cl)c1C(=O)Nc1ccc(OC(F)F)cc1C` (stereo not shown) [compound 837], the “Insecticidal effect on diamondback moth” value is listed as “A (100)”.
Consider `CC(C)NC(=O)c1c(C(=O)Nc2ccc3c(c2)nc(C(F)(F)F)n3C)cccc1[N+](=O)[O-]` [compound 737], for which the “Insecticidal effect on diamondback moth” value is “A (100)”.
The same measure, in the same setting: the entry for `CC(C)NC(=O)c1cccc(I)c1C(=O)Nc1ccc(C=C(Cl)C(F)(F)F)cc1` [compound 918] is “A (100)”.
Take `Cc1cc(Oc2c(F)c(F)c(F)c(F)c2F)ccc1NC(=O)c1c(F)cccc1C(=O)NC(C)C` [compound 573]: the “Insecticidal effect on diamondback moth” value is recorded as “A (100)”.
As to `Cc1cc(OC(F)F)ccc1NC(=O)c1cccc([N+](=O)[O-])c1C(=O)N(C)C(C)C` [compound 825], the “Insecticidal effect on diamondback moth” value is “A (100)”.
Consider `COc1cccc(NC(=O)c2cccc([N+](=O)[O-])c2C(=O)NC(C)C)c1` [compound 613], for which the “Insecticidal effect on diamondback moth” value is reported as “A (100)”.
For `CC(C)NC(=O)c1c(C(=O)Nc2ccc(Cl)c(C(F)(F)F)c2)cccc1[N+](=O)[O-]` [compound 678], the “Insecticidal effect on diamondback moth” value was “A (100)”.
Consider `CC(C)NC(=O)c1c(C(=O)Nc2ccc(SCC(F)(F)F)cc2)cccc1[N+](=O)[O-]` [compound 624], for which the “Insecticidal effect on diamondback moth” value is “A (100)”.

These data come from US6362369B1, “Phthalic acid diamide derivatives fluorine-containing aniline compounds as starting material, agricultural and horticultural insecticides, and a method for application of the insecticides” (Nihon Nohyaku Co., Ltd., priority 1997, dated 2002).
